The source of these data is patent US20120015923A1, “USE OF ANDROGRAPHOLIDE COMPOUNDS FOR TREATING INFLAMMATION AND AIRWAY DISORDERS” (NATIONAL UNIVERSITY OF SINGAPORE, priority 2009, published 2012).

The test system of assay [1] is IL-4, IL-5, IL-13, eotaxin and IFN-γ in the BAL fluid. In words: Cytokine and chemokine levels in BAL fluid (ELISA), OVA mouse asthma model. Conditions: OVA-challenged mice. The class given is in vivo, BALB/c mice. How it is done:
Andrographolide or DDAG alone (0.1, 0.5, and 1 mg/kg; Sigma, St. Louis, Mo.) or vehicle (1% dimethyl sulfoxide [DMSO]) in 0.1 ml saline was given by intraperitoneal injections 2 hour before and 10 hours after each OVA aerosol challenge. Andrographolide or 14-deoxy-11,12-didehydroandrographolide (DDA) were prepared from stock. DMSO was used as a solvent to dissolve Andrographolide or DDA. A stock solution of 10 mg/ml was prepared and stored at −20° C. When used, the stock solution was thawed and diluted with Saline solution to form three different drug concentrations: 0.01 mg/ml, 0.05 mg/ml and 0.1 mg/ml.
Bronchoalveolar lavage (BAL) was conducted on Day 25, 24 hours after the final OVA/saline challenge. Mice were anaesthetized by 0.3 ml i.p. injections of an anesthetic cocktail (ketamine: medetomidine: H2O=3:4:33, Parnell, Alexandria NSW, Australia & Pfizer, Auckland, New Zealand) with 27 G½ sterile needle (PrecisionGlide®). Mice were sacrificed by cervical dislocation 5 minutes after anesthetization. 25 G½ sterile needles (PrecisionGlide®) were used for blood extraction. […] Tracheotomy was then performed and a small transverse incision was made on the exposed trachea. Blunt needles (20 G), which were connected to 1 ml sterile syringes, were inserted into the trachea through this incision and 0.5 ml of ice-cold PBS (4° C.) was instilled thrice into the lungs (0.5 ml×3). About 1.2-1.4 ml of BAL fluid was retrieved from each mouse and was kept in −80° C. for subsequent experiments.
DDAG alone (0.1, 0.5, and 1 mg/kg; Sigma, St. Louis, Mo.) or vehicle (2% dimethyl sulfoxide [DMSO]) in 0.1 ml saline was given by intraperitoneal injections 2 hour before and 10 hours after each OVA aerosol challenge. In the combinational experiments, DDAG (0.1 mg/kg) in combination with Dexamethasone (0.05 mg/kg) was given intraperitoneally. In both experimental setting, saline aerosol was used as a negative control. Animal experiments were performed according to the Institutional guidelines for Animal Care and Use Committee of the National University of Singapore.
Levels of IL-4, 11-5, IL-13, eotaxin and IFN-γ in the BAL fluid were measured (IL-4, IL-5 and IFN-γ from BD Biosciences Pharmingen, San Diego, Calif., USA; IL-13 and eotaxin from R&D Systems, Minneapolis, Minn., USA). The kits were obtained from two different manufacturers and thus the protocols differed in certain steps. In brief, 50 μl of coating capture antibody in respective coating buffers (pH 9.5, 0.1 M sodium carbonate for IL-4, IL-5 and IFN-γ; 1×PBS for IL-13 and eotaxin) was coated to 96-well ELISA plate (NUNC, Denmark). The plate was sealed with parafilm and incubated overnight at respective temperature (4° C. for IL-4, IL-5 and IFN-γ and room temperature for IL-13 and eotaxin). Next day, each well was washed with washing buffer (PBS with 0.05% Tween-20) and blocked with 200 μl blocking buffer (PBS with 10% FBS for IL-4, IL-5 and IFN-γ; 1×PBS with 1% BSA and 5% sucrose for IL-13 and eotaxin) for 2 hours at room temperature. After blocking, 50 μl of standards and BAL fluid samples were loaded into respective wells, and incubated for 2 h at room temperature. Several washings were done to remove unbound molecules. The plate was incubated with biotinylated-detection antibody with HRP for 1 h (BD OptEIA™ Kit) or with biotinylated detection antibody for 1 h followed by HRP for 45 min (R&D Kit). After washing, 50 μl of TMB peroxidase substrate (solution A: solution B=9:1) was added into each well, and incubated for 30 min in dark. Lastly, 50 μl of stopping solution (1 M H2SO4) was added to stop the reaction. The optical density of each well in the plate was read at 450 nm with λ correction at 570 nm. Detection limits of the respective kits are as follow: 4 pg/ml for IL-4 and IL-5; 15.6 pg/ml for IL-13 and IFN-γ; and 2 pg/ml for eotaxin.
(ELISA stands for enzyme-linked immunosorbent assay.)

In assay [2] the test system is total IgE and OVA-specific IgE, IgG1, and IgG2a in serum. In words: Serum Ig levels (ELISA), OVA mouse asthma model. The class given is in vivo, BALB/c mice. Conditions: OVA-challenged mice, serum 24 hours after last OVA aerosol; for serum OVA-specific IgE level: DDAG even at lowest dose 0.1 mg/kg. The procedure: Blood collected from the hearts were allowed to clot for at least 4 h. Centrifugation at 3000 rpm for 5 min at 4° C. was then performed on all blood samples. The supernatant, which is the serum, was extracted carefully and stored at −80° C. The samples were kept for ELISA.
Mice were anesthetized 24 hours after the last aerosol challenge and bronchoalveolar lavage (BAL) was performed as described above. BAL fluid total and differential cell counts, and cytokine and chemokine levels were determined as described above. Blood was collected by cardiac puncture, and serum levels of total IgE and OVA-specific IgE, IgG1, and IgG2a levels were determined.
Levels of total IgE and OVA-specific IgE, IgG 1 , and IgG2a in serum were measured. 96-well ELISA plate coated with either 50 μl of capture antibody (for total IgE, 1:250 dilution with 1 M Na2CO3) or 50 μl of 20 μg/ml OVA (for OVA-specific IgE, IgG1, and IgG2a) overnight at 4° C. Next day, the plate was washed with washing buffer (PBS with 0.05% Tween-20 for total IgE; PBS with 0.1% Tween-20 for OVA-specific IgE) and blocked with 300 μl 10% FBS in PBS for 2 hr at room temperature. After blocking, standards (only for total IgE) and serum samples were loaded into respective wells and incubated for 2 h. Followed by washing, respective detective antibodies were added and incubated for 1 h, followed by 45 min incubation of HRP-conjugate antibody for 45 min in the dark. Substrates were then added for 30 min in the dark with mild shaking. Lastly, 50 μl of stopping solution (1 M H2SO4) was added to stop the reaction. The optical density of each well in the plate was read at 450 nm with λ correction at 570 nm. The detection limit for total IgE was 2 ng/ml.

Setting [3] is: 0.1, 0.5, 1 mg/kg i.p., 24 hours after last OVA aerosol, vs DMSO control.
Setting [4] is: DDAG significant at higher doses.

As for `C=C1CC[C@@H]2[C@](C)(CO)[C@H](O)CC[C@@]2(C)[C@@H]1C/C=C1/C(=O)OC[C@H]1O` [Andrographolide], in assay [1] (setting [3]), the “IL-4 level in BAL fluid” value was “inhibited”, the “IL-5 level in BAL fluid” value is “inhibited”, the “IL-13 level in BAL fluid” value is reported as “inhibited” and the “eotaxin level in BAL fluid” value was “inhibition”. Moreover, in assay [2], the “serum OVA-specific IgG2a level” value was “inhibition” and the “serum OVA-specific IgE level” value is listed as “significantly lowered”. Also, in assay [2] (setting [4]), the “serum OVA-specific IgG1 level” value is “inhibition” and the “serum total IgE level” value is on record as “significantly lowered”.
In the case of `C=C1CCC2C(C)(CO)C(O)CCC2(C)C1C=CC1=CCOC1=O` (stereo not drawn) [DDAG, 14-Deoxy-11,12-didehydroandrographolide], the “IFN-γ level in BAL fluid” value in assay [1] (1 mg/kg) is listed as “markedly upregulated”. In addition, in assay [1] (setting [3]), the “IL-4 level in BAL fluid” value is listed as “significantly (P<0.05) reduced”, the “IL-5 level in BAL fluid” value is “significantly (P<0.05) reduced” and the “IL-13 level in BAL fluid” value was “significantly (P<0.05) reduced”. Moreover, in assay [2], the “serum OVA-specific IgG2a level” value is “no effects” and the “serum OVA-specific IgE level” value is “strongly suppressed”. For the same compound, the “serum total IgE level” value in assay [2] (setting [4]) is “to a lesser extent”.
